According to patent US9650336B2, “Mono-fluoro beta-secretase inhibitors” (ASTRAZENECA AB, priority 2011, dated 2017):

Key:
[1] = molecular target: T1, human β-secretase (sBACE-Fc, soluble part AA 1-AA 460) (Homo sapiens (Human), UniProt P56817); assay: TR-FRET assay; assay type: biochemical; conditions: TruPoint BACE1 substrate 100 nM, pH 4.5, 15 min at r.t.
Method: (§1) The β-secretase enzyme used in the TR-FRET is prepared as follows:
(§2) The cDNA for the soluble part of the human 13-Secretase (AA 1-AA 460) was cloned using the ASP2-Fc10-1-IRES-GFP-neoK mammalian expression vector. The gene was fused to the Fc domain of IgG1 (affinity tag) and stably cloned into HEK 293 cells.
(§3) The enzyme (truncated form) was diluted to 6 μg/mL (stock 1.3 mg/mL) and the TruPoint BACE1 Substrate to 200 nM (stock 120 μM) in reaction buffer (NaAcetate, chaps, triton x-100, EDTA pH4.5). The robotic systems Biomek FX and Velocity 11 were used for all liquid handling and the enzyme and substrate solutions were kept on ice until they were placed in the robotic system. Enzyme (9 μL) was added to the plate then 1 μL of compound in dimethylsulphoxide was added, mixed and pre-incubated for 10 minutes. Substrate (10 μL) was then added, mixed and the reaction proceeded for 15 minutes at r.t. The reaction was stopped with the addition of Stop solution (7 μL, NaAcetate, pH 9). The fluorescence of the product was measured on a Victor II plate reader with an excitation wavelength of 340 nm and an emission wavelength of 615 nm. The assay was performed in a Costar 384 well round bottom, low volume, non-binding surface plate (Corning #3676). […] The dimethylsulphoxide control, instead of test compound, defined the 100% activity level and 0% activity was defined by wells lacking enzyme (replaced with reaction buffer).

[2] = test system: sAPPβ release in SH-SY5Y cells; assay: sAPPβ release assay; assay type: cell-based; conditions: Homo sapiens, 17 h incubation
Method: SH-SY5Y cells were cultured in DMEM/F-12 with Glutamax, 10% FCS and 1% non-essential amino acids and cryopreserved and stored at −140° C. at a concentration of 7.5-9.5×10^6 cells per vial. Thaw cells and seed at a conc. of around 10000 cells/well in DMEM/F-12 with Glutamax, 10% FCS and 1% non-essential amino acids to a 384-well tissue culture treated plate, […] cell susp/well. The cell plates were then incubated for 7-24 h at 37° C., 5% CO2. The cell medium was removed, followed by addition of 30 μL compound diluted in DMEM/F-12 with Glutamax, 10% FCS, 1% non-essential amino acids and 1% PeSt to a final conc. of 1% DMSO. The compounds were incubated with the cells for 17 h (overnight) at 37° C., 5% CO2. Meso Scale Discovery (MSD) plates were used for the detection of sAPPβ release. MSD sAPPβ plates were blocked in 1% BSA in Tris wash buffer (40 μL/well) for 1 h on shake at r.t. and washed 1 time in Tris wash buffer (40 μL/well). 20 μL of medium was transferred to the pre-blocked and washed MSD sAPPβ microplates, and the cell plates were further used in an ATP assay to measure cytotoxicity. The MSD plates were incubated with shaking at r.t. for 2 h and the media discarded. 10 μL detection antibody was added (1 nM) per well followed by incubation with shaking at r.t. for 2 h and then discarded. 40 μL Read Buffer was added per well and the plates were read in a SECTOR Imager.

[3] = molecular target: T1, human β-secretase (sBACE-Fc, soluble part AA 1-AA 460); assay: Diluted TR-FRET assay; assay type: biochemical; conditions: 50 times less enzyme, 6.5 h reaction time at r.t. in the dark; read-out: IC50 from the diluted FRET assay
Method: as §1, §2
as §3, with “The enzyme (truncated form) was diluted to 6 μg/mL (stock 1.3 mg/mL) and the TruPoint BACE1 Substrate to 200 nM (stock 120 μM) in reaction buffer (NaAcetate, chaps, triton x-100, EDTA pH4.5).” left out, “Substrate (10 μL) was then added, mixed and the reaction proceeded for 15 minutes at r.t.” left out

T1 sequence (P56817 22-460): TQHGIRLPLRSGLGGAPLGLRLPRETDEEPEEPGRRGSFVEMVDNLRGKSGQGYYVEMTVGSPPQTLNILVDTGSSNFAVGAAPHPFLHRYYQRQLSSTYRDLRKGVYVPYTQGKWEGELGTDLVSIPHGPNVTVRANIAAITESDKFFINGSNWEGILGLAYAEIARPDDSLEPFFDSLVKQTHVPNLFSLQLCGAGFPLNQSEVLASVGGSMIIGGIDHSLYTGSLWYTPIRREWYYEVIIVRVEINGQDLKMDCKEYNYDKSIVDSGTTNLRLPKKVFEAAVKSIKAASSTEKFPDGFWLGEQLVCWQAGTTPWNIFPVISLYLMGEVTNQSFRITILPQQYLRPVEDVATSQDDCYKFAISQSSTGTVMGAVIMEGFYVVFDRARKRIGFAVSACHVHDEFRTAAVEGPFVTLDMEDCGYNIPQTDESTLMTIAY

Row | IC50 [1] | IC50 [2] | IC50 [3] | SMILES
1 | 3790 nM | 168 nM | – | CC1(C)Cc2ccc(-c3cncnc3)cc2C12C=C(F)C(N)=N2 (stereo not drawn) [Example 9, 4′-fluoro-2,2-dimethyl-6-(pyrimidin-5-yl)-2,3-dihydrospiro[indene-1,2′-pyrrol]-5′-amine]
2 | 18 nM | 0.031 nM | – | CC#Cc1cncc(-c2ccc3c(c2)C2(C=C(F)C(N)=N2)[C@]2(CC[C@H](OC)CC2)C3)c1 (stereo partly drawn) [Example 3, (1r,4r)-4″-Fluoro-4-methoxy-6′-[5-(prop-1-yn-1-yl)pyridin-3-yl]-3′H-dispiro[cyclohexane-1,2′-indene-1′,2″-pyrrol]-5″amine]
3 | – | 1.1 nM | 22 nM | CO[C@H]1CC[C@]2(CC1)Cc1ccc(-c3cncnc3)cc1C21C=C(F)C(N)=N1 (stereo partly drawn) [Example 1, (1r,4r)-4″-fluoro-4-methoxy-6′-(pyrimidin-5-yl)-3′H-dispiro[cyclohexane-1,2′-indene-1,2″-pyrrol]-5″amine]
4 | 71 nM | 3 nM | – | CO[C@H]1CC[C@]2(CC1)Oc1ccc(-c3cc(F)cc(C#N)c3)cc1C21C=C(F)C(N)=N1 (stereo partly drawn) [Example 5, 3-[(1s,4s)-5″-Amino-4″-fluoro-4-methoxydispiro[cyclohexane-1,2′-[1]benzofuran-3′,2″-pyrrol]-5′-yl]-5-fluorobenzonitrile]
5 | 770 nM | 19 nM | – | CC1(C)COc2ccc(-c3cncnc3)cc2C12C=C(F)C(N)=N2 (stereo not drawn) [Example 6, 4′-Fluoro-3,3-dimethyl-6-(pyrimidin-5-yl)spiro[chroman-4,2′-pyrrol]-5′-amine]
6 | 1970 nM | 56 nM | – | CO[C@H]1CC[C@@]2(CC1)Cc1ccc(-c3cncnc3)cc1C21C=C(F)C(N)=N1 (stereo partly drawn) [Example 2, (1s,4s)-4″-Fluoro-4-methoxy-6′-(pyrimidin-5-yl)-3′H-dispiro[cyclohexane-1,2′-indene-1,2″-pyrrol]-5″amine]
7 | 770 nM | 30 nM | – | CC1(C)COc2ccc(-c3cncc(F)c3)cc2C12C=C(F)C(N)=N2 (stereo not drawn) [Example 7, 4′-Fluoro-6-(5-fluoropyridin-3-yl)-3,3-dimethylspiro[chroman-4,2′-pyrrol]-5′-amine]
8 | 640 nM | 256 nM | – | CC1(C)COc2ccc(-c3cc(F)cc(F)c3)cc2C12C=C(F)C(N)=N2 (stereo not drawn) [Example 8, 6-(3,5-Difluorophenyl)-4′-fluoro-3,3-dimethylspiro[chroman-4,2′-pyrrol]-5′-amine]
9 | 258 nM | 1.1 nM | – | CC#Cc1cncc(-c2ccc3c(c2)C2(C=C(F)C(N)=N2)[C@]2(CC[C@@H](OC)CC2)C3)c1 (stereo partly drawn) [Example 4, (1s,4s)-4″-Fluoro-4-methoxy-6′-[5-(prop-1-yn-1-yl)pyridin-3-yl]-3′H-dispiro[cyclohexane-1,2′-indene-1′,2″-pyrrol]-5″amine]
